Assay results as given in patent publication US8703768B2, “Nitrogen containing heteroaryl compounds” (Hoffmann-La Roche Inc., priority 2010, dated 2014).

Biological target: human PDE10A (Homo sapiens (Human), UniProt Q9Y233)
Assay: human PDE10A full length Scintillation Proximity Assay (SPA)
Assay type: biochemical
Settings: 50 nM cGMP and 50 nM [3H]-cGMP, 20 minutes at room temperature; read-out: PDE10A inhibition IC50
Method in brief: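 Full-length enzyme incubated with compounds; reaction started with cGMP plus [^3H]-cGMP substrate and run 20 min at room temperature. Stopped with yttrium silicate SPA beads in 18 mM zinc sulphate, 1 h shaking, then scintillation counting; background from enzyme-free wells.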

human PDE10A, sequence (Q9Y233 other isoform, or with tags, fused parts or gaps): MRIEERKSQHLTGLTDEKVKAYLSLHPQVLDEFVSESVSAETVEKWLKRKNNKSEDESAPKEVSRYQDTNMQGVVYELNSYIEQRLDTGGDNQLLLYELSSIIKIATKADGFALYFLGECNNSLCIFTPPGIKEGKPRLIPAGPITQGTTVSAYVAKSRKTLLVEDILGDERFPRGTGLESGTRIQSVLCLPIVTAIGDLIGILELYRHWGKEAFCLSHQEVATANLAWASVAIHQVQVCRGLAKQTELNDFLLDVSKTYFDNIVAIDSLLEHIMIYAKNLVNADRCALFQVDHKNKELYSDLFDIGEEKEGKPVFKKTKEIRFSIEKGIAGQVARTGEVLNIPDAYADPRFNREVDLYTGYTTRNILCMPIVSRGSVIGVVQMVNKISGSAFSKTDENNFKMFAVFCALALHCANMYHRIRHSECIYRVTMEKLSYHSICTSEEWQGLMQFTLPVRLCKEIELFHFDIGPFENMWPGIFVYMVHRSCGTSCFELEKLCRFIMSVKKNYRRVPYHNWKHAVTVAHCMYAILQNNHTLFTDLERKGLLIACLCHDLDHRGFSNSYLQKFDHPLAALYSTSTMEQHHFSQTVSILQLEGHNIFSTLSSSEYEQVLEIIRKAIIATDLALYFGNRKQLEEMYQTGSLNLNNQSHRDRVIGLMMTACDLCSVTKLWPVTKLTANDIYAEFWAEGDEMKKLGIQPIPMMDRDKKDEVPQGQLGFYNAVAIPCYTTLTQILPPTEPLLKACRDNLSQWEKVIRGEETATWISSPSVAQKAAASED

SMILES	IC50 [nM]
CC(C)(O)CNC(=O)c1nc(C2CC2)ccc1NC(=O)c1nc(C2CC2)cnc1Nc1cncnc1 [Example 159, 6-Cyclopropyl-3-(pyrimidin-5-ylamino)-pyrazine-2-carboxylic acid [6-cyclopropyl-2-(2-hydroxy-2-methyl-propylcarbamoyl)-pyridin-3-yl]-amide]	0.4
CNC(=O)c1c(Cl)cccc1NC(=O)c1nc(C2CC2)cnc1Nc1cncnc1 [Example 196, 6-Cyclopropyl-3-(pyrimidin-5-ylamino)-pyrazine-2-carboxylic acid (3-chloro-2-methylcarbamoyl-phenyl)-amide]	22
CNC(=O)c1c(NC(=O)c2nc(C3CC3)cnc2Nc2cncnc2)cnn1CC1CCCO1 (centres unmarked) [Example 243, 6-Cyclopropyl-3-(pyrimidin-5-ylamino)-pyrazine-2-carboxylic acid [5-methylcarbamoyl-1-(tetrahydro-furan-2-ylmethyl)-1H-pyrazol-4-yl]-amide]	1.4
CNC(=O)c1c(NC(=O)c2nc(C(C)C)ncc2Nc2cccnc2)cnn1C [Example 186, 2-Isopropyl-5-(pyridin-3-ylamino)-pyrimidine-4-carboxylic acid (1-methyl-5-methylcarbamoyl-1H-pyrazol-4-yl)-amide]	8.2
Cn1cc(NC(=O)c2nc(C3CC3)cnc2Nc2cncnc2)c(C(=O)NCC(C)(C)O)n1 [Example 95, 6-Cyclopropyl-3-(pyrimidin-5-ylamino)-pyrazine-2-carboxylic acid [3-(2-hydroxy-2-methyl-propylcarbamoyl)-1-methyl-1H-pyrazol-4-yl]-amide]	1.8
CC(C)N(C)C(=O)c1c(NC(=O)c2nc(C3CC3)cnc2Nc2cncnc2)cnn1C [Example 227, 6-Cyclopropyl-3-(pyrimidin-5-ylamino)-pyrazine-2-carboxylic acid [5-(isopropyl-methyl-carbamoyl)-1-methyl-1H-pyrazol-4-yl]-amide]	64.1
CNC(=O)c1c(NC(=O)c2nc(C3CC3)cnc2Nc2cncnc2)cnn1CCOC [Example 147, 6-Cyclopropyl-3-(pyrimidin-5-ylamino)-pyrazine-2-carboxylic acid [1-(2-methoxy-ethyl)-5-methylcarbamoyl-1H-pyrazol-4-yl]-amide]	1.2
CNC(=O)c1c(NC(=O)c2nc(OC)cnc2Nc2cncnc2)cnn1C [Example 258, 6-Methoxy-3-(pyrimidin-5-ylamino)-pyrazine-2-carboxylic acid (1-methyl-5-methylcarbamoyl-1H-pyrazol-4-yl)-amide]	176
CN(C)C(=O)c1ncccc1NC(=O)c1nc(C2CC2)cnc1Nc1cncnc1 [Example 129, 6-Cyclopropyl-3-(pyrimidin-5-ylamino)-pyrazine-2-carboxylic acid (2-dimethylcarbamoyl-pyridin-3-yl)-amide]	6
Cn1cc(NC(=O)c2nc(C3CC3)ccc2Nc2cncnc2)c(C(=O)N2CCNC(=O)C2)n1 [Example 47, 6-Cyclopropyl-3-(pyrimidin-5-ylamino)-pyridine-2-carboxylic acid [1-methyl-3-(3-oxo-piperazine-1-carbonyl)-1H-pyrazol-4-yl]-amide]	13.2
Cn1cc(NC(=O)c2nc(C3CC3)ccc2Nc2cncnc2)c(C(=O)N2CCC(C)(C)C2)n1 [Example 32, 6-Cyclopropyl-3-(pyrimidin-5-ylamino)-pyridine-2-carboxylic acid [3-(3,3-dimethyl-pyrrolidine-1-carbonyl)-1-methyl-1H-pyrazol-4-yl]-amide]	7.3
CC(C)(O)CNC(=O)c1c(NC(=O)c2nc(C3CC3)cnc2Nc2cncnc2)cnn1CC(F)(F)F [Example 175, 6-Cyclopropyl-3-(pyrimidin-5-ylamino)-pyrazine-2-carboxylic acid [5-(2-hydroxy-2-methyl-propylcarbamoyl)-1-(2,2,2-trifluoro-ethyl)-1H-pyrazol-4-yl]-amide]	25
Cn1ncc(NC(=O)c2nc(C3CC3)cnc2Nc2cncnc2)c1C(=O)N1CCC1 [Example 155, 6-Cyclopropyl-3-(pyrimidin-5-ylamino)-pyrazine-2-carboxylic acid [5-(azetidine-1-carbonyl)-1-methyl-1H-pyrazol-4-yl]-amide]	12.7
CNC(=O)c1nc(COC)ccc1NC(=O)c1nc(C2CC2)cnc1Nc1cncnc1 [Example 209, 6-Cyclopropyl-3-(pyrimidin-5-ylamino)-pyrazine-2-carboxylic acid (6-methoxymethyl-2-methylcarbamoyl-pyridin-3-yl)-amide]	3.7
CC(C)(O)CNC(=O)c1ccncc1NC(=O)c1nc(C2CC2)ccc1Nc1cncnc1 [Example 70, 6-Cyclopropyl-3-(pyrimidin-5-ylamino)-pyridine-2-carboxylic acid [4-(2-hydroxy-2-methyl-propylcarbamoyl)-pyridin-3-yl]-amide]	2.1
CNC(=O)c1c(F)cccc1NC(=O)c1nc(C2CC2)cnc1Nc1cncnc1 [Example 307, 6-Cyclopropyl-3-(pyrimidin-5-ylamino)-pyrazine-2-carboxylic acid (3-fluoro-2-methylcarbamoyl-phenyl)-amide]	68.6

The remaining lines, values ahead:

IC50 [nM]	SMILES
691	CNC(=O)c1c(NC(=O)c2nc(N3CCN(C)CC3)cnc2Nc2cncnc2)cnn1C [Example 333, 4-Methyl-5′-(pyrimidin-5-ylamino)-3,4,5,6-tetrahydro-2H-[1,2]bipyrazinyl-6′-carboxylic acid (1-methyl-5-methylcarbamoyl-1H-pyrazol-4-yl)-amide]
34.3	CNC(=O)c1c(NC(=O)c2nc(C3CC3)ncc2Nc2cncnc2)cnn1C [Example 314, 2-Cyclopropyl-5-(pyrimidin-5-ylamino)-pyrimidine-4-carboxylic acid (1-methyl-5-methylcarbamoyl-1H-pyrazol-4-yl)-amide]
4.6	CC(C)(O)CNC(=O)c1c(NC(=O)c2nc(C3CC3)cnc2Nc2cncnc2)ccc(F)c1F [Example 318, 6-Cyclopropyl-3-(pyrimidin-5-ylamino)-pyrazine-2-carboxylic acid [3,4-difluoro-2-(2-hydroxy-2-methyl-propylcarbamoyl)-phenyl]-amide]
250	CNC(=O)c1c(NC(=O)c2nc(C(C)(C)O)ncc2Nc2cncnc2)cnn1C [Example 340, 2-(1-Hydroxy-1-methyl-ethyl)-5-(pyrimidin-5-ylamino)-pyrimidine-4-carboxylic acid (1-methyl-5-methylcarbamoyl-1H-pyrazol-4-yl)-amide]
2.7	CC(C)(O)CNC(=O)c1ccc(F)c(F)c1NC(=O)c1nc(C2CC2)cnc1Nc1cncnc1 [Example 326, 6-Cyclopropyl-3-(pyrimidin-5-ylamino)-pyrazine-2-carboxylic acid [2,3-difluoro-6-(2-hydroxy-2-methyl-propylcarbamoyl)-phenyl]-amide]
15.5	O=C(Nc1ccc(F)c(F)c1C(=O)N1CCC1)c1nc(C2CC2)cnc1Nc1cncnc1 [Example 319, 6-Cyclopropyl-3-(pyrimidin-5-ylamino)-pyrazine-2-carboxylic acid [2-(azetidine-1-carbonyl)-3,4-difluoro-phenyl]-amide]
1.1	CC(C)(O)CNC(=O)c1ncccc1NC(=O)c1nc(C(C)(C)C)ncc1Nc1cncnc1 [Example 330, 2-tert-Butyl-5-(pyrimidin-5-ylamino)-pyrimidine-4-carboxylic acid [2-(2-hydroxy-2-methyl-propylcarbamoyl)-pyridin-3-yl]-amide]
